Reference: patent US5223485A, “Anaphylatoxin-receptor ligands” (Abbott Laboratories, priority 1991, dated 1993)
Numbered stars: 1 amine (or outer) side, 2 acyl side, 3 side chain; on linkers, the order of the positions; unused ones are H or OH. Square brackets hold non-standard residues; d marks the D form. Peptide text beside a SMILES is read from it. Phe(4-NO2) = N[C@@H](Cc1ccc([N+](=O)[O-])cc1)C(=O)O; X1 = O=C([C@@H](N[*:1])C(O)c1ccccc1)[*:2]; hCha = N[C@@H](CCC1CCCCC1)C(=O)O; Cha = N[C@@H](CC1CCCCC1)C(=O)O; dNMeA = CN[C@H](C)C(=O)O

Biological target: T1, C5a Receptor (Homo sapiens, UniProt P21730)
T1 construct: 2.5-25 μg/mL of purified PMNL membrane fragments; from tissue; host or cells: polymorphonuclear leukocyte (PMNL) membrane fragments
T1 sequence (P21730 1-350): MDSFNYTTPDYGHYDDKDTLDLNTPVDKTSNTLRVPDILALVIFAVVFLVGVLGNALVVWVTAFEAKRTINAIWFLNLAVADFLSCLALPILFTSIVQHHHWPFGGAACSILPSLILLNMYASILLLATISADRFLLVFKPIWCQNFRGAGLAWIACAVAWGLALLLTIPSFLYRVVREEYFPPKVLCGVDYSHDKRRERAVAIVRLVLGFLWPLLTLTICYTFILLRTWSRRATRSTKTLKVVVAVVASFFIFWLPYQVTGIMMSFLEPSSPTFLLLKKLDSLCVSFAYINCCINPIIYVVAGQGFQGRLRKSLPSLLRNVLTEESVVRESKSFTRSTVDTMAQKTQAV
Test: Anaphylatoxin receptor binding Ki determination: inhibition of 125I-C5a binding to PMNL membrane fragments
Settings: 0.03-1 nM 125I-C5a, 2.5-25 μg/mL purified PMNL membrane fragments, filtration; read-out: In vitro C5a Receptor Binding Potency Ki
Procedure: Specific inhibition of C5a binding activity of representative compounds of the present invention was measured using 0.03-1 nM ^125 I-C5a with 2.5-25 μg/mL of purified PMNL membrane fragments (Borregaard, N.; Heiple, J. M.; Simons, E. R.; and Clark, R. A. J. Cell. Biol. 1983, 97, 52-61.). Free and membrane-bound ligand were separated by filtration.

| SMILES | Ki |
| --- | --- |
| CC(C)C[C@H](NC(=O)[C@H](CC1CCCCC1)NC(=O)[C@H](CC1CCCCC1)NC(=O)[C@H](C)NC(=O)[C@H](CCCCN)NC(=O)[C@@H](N)Cc1ccccc1)C(=O)N[C@H](C)C(=O)N[C@@H](CCCNC(=N)N)C(=O)O [Example 2, H-Phenylalanyl-Lysyl-Alanyl-{(2S)-2-Amino-3-cyclohexylpropanoyl}-{(2S)-2-Amino-3-cyclohexylpropanoyl}-Leucyl-DAlanyl-Arginyl-OH] (H-FKA[Cha][Cha]L[dA]R-OH) | 98 nM |
| CC(=O)N[C@@H](Cc1c[nH]cn1)C(=O)N[C@@H](CCCCN)C(=O)N[C@@H](CC(=O)O)C(=O)N[C@@H](CC1CCCCC1)C(=O)N[C@@H](Cc1c[nH]cn1)C(=O)N[C@@H](CC(C)C)C(=O)N[C@H](C)C(=O)N[C@@H](CCCNC(=N)N)C(=O)O [Example 23, Ac-Histidyl-Lysyl-Aspartyl-{(2S)-2-Amino-3-cyclohexylpropanoyl}-Histidyl-Leucyl-DAlanyl-Arginyl-OH] (Ac-HKD[Cha]HL[dA]R-OH) | 2400 nM |
| CC(=O)N[C@@H](Cc1ccc([N+](=O)[O-])cc1)C(=O)N[C@@H](CCCCN)C(=O)N[C@@H](CC(=O)O)C(=O)N[C@@H](CC1CCCCC1)C(=O)N[C@@H](CC1CCCCC1)C(=O)N[C@@H](CC(C)C)C(=O)N[C@H](C)C(=O)N[C@@H](CCCNC(=N)N)C(=O)O [Example 31, Ac-(4-NO2)Phenylalanyl-Lysyl-Aspartyl-{(2S)-2-Amino-3-cyclohexylpropanoyl}-{(2S)-2-Amino-3-cyclohexylpropanoyl}-Leucyl-DAlanyl-Arginyl-OH] (Ac-[Phe(4-NO2)]KD[Cha][Cha]L[dA]R-OH) | 90 nM |
| CC(C)C[C@H](NC(=O)[C@H](Cc1ccccc1)NC(=O)[C@H](Cc1ccccc1)NC(=O)[C@H](CC(N)=O)NC(=O)[C@H](CCCCN)NC(=O)[C@@H](N)Cc1ccccc1)C(=O)N[C@H](C)C(=O)N[C@@H](CCCNC(=N)N)C(=O)O [Example 91, H-Phenylalanyl-Lysyl-Asparaginyl-Phenylalanyl-Phenylalanyl-Leucyl-DAlanyl-Arginyl-OH] (H-FKNFFL[dA]R-OH) | 485 nM |
| CC(C)C[C@H](NC(=O)[C@H](C)NC(=O)[C@H](CCC1CCCCC1)NC(=O)[C@H](C)NC(=O)[C@H](CCCCN)NC(=O)[C@@H](N)Cc1ccccc1)C(=O)N[C@H](C)C(=O)N[C@@H](CCCNC(=N)N)C(=O)O [Example 106, H-Phenylalanyl-Lysyl-Alanyl-{(2S)-2-Amino-4-cyclohexylbutanoyl}-Alanyl-Leucyl-DAlanyl-Arginyl-OH] (H-FKA[hCha]AL[dA]R-OH) | 42 nM |
| CC[C@H](C)[C@H](N)C(=O)N[C@@H](CO)C(=O)N[C@@H](Cc1ccccc1)C(=O)N[C@@H](CCCCN)C(=O)N[C@@H](CC(=O)O)C(=O)N[C@@H](CC1CCCCC1)C(=O)N[C@@H](CC1CCCCC1)C(=O)N[C@@H](CC(C)C)C(=O)N[C@H](C)C(=O)N[C@@H](CCCNC(=N)N)C(=O)O [Example 111, H-Isoleucyl-Seryl-Phenylalanyl-Lysyl-Aspartyl-{(2S)-2-Amino-3-cyclohexylpropanoyl}-{(2S)-2-Amino-3-cyclohexylpropanoyl}-Leucyl-DAlanyl-Arginyl-OH] (H-ISFKD[Cha][Cha]L[dA]R-OH) | 650 nM |
| CC(C)C[C@H](NC(=O)[C@H](C)NC(=O)[C@@H](NC(=O)[C@H](C)NC(=O)[C@H](CCCCN)NC(=O)[C@@H](N)Cc1ccccc1)C(O)c1ccccc1)C(=O)N[C@H](C)C(=O)N[C@@H](CCCNC(=N)N)C(=O)O (stereo partly drawn) [Example 117, H-Phenylalanyl-Lysyl-Alanyl-Phenylseryl-Alanyl-Leucyl-DAlanyl-Arginyl-OH] (H-FKA[X1]AL[dA]R-OH) | 550 nM |
| C[C@H](NC(=O)[C@H](CCCCN)NC(=O)[C@@H](N)Cc1ccccc1)C(=O)N[C@@H](CC1CCCCC1)C(=O)N[C@@H](CC1CCCCC1)C(=O)N[C@H](C(=O)N[C@H](C)C(=O)N[C@@H](CCCNC(=N)N)C(=O)O)[C@@H](C)O [Example 131, H-Phenylalanyl-Lysyl-Alanyl-{(2S)-2-Amino-3-cyclohexylpropanoyl}-{(2S)-2-Amino-3-cyclohexylpropanoyl}-Threonyl-DAlanyl-Arginyl-OH] (H-FKA[Cha][Cha]T[dA]R-OH) | 170 nM |
| CCCC(C(=O)N[C@H](C)C(=O)N[C@@H](CCCNC(=N)N)C(=O)O)N1CCCC[C@H](NC(=O)[C@H](CC2CCCCC2)NC(=O)[C@H](Cc2c[nH]cn2)NC(=O)[C@H](CCCCN)NC(=O)[C@@H](N)Cc2ccccc2)C1=O (stereo partly drawn) [Example 150, H-Phenylalanyl-Lysyl-Histidyl-{(2S)-2-Amino-3-cyclohexylpropanoyl}-{(2'R/S,3S)-3-Amino-2-oxo-1-azepine-2'-pentanoyl}-DAlanyl-Arginyl-OH] | 110 nM |
| CC(C)C[C@H](NC(=O)CNC(=O)[C@H](CC1CCCCC1)NC(=O)[C@H](C)NC(=O)[C@H](CCCCN)NC(=O)[C@@H](N)Cc1ccccc1)C(=O)N[C@H](C)C(=O)N[C@@H](CCCNC(=N)N)C(=O)O [Example 165, H-Phenylalanyl-Lysyl-Alanyl-{(2S)-2-Amino-3-cyclohexylpropanoyl}-Glycyl-Leucyl-DAlanyl-Arginyl-OH] (H-FKA[Cha]GL[dA]R-OH) | 42 nM |
| CC(C)C[C@H](NC(=O)[C@H](CC1CCCCC1)NC(=O)[C@@H](NC(=O)[C@H](C)NC(=O)[C@H](CCCCN)NC(=O)[C@@H](N)Cc1ccccc1)[C@@H](C)O)C(=O)N[C@H](C)C(=O)N[C@@H](CCCNC(=N)N)C(=O)O [Example 182, H-Phenylalanyl-Lysysl-Alanyl-Threonyl-{(2S)-2-Amino-3-cyclohexylpropanoyl}-Leucyl-DAlanyl-Arginyl-OH] (H-FKAT[Cha]L[dA]R-OH) | 300 nM |
| CC(C)C[C@H](NC(=O)[C@H](CC1CCCCC1)NC(=O)[C@H](CC1CCCCC1)NC(=O)[C@H](C)NC(=O)[C@H](CCCCN)NC(=O)[C@@H](N)Cc1ccccc1)C(=O)N[C@@H](C)C(=O)N[C@@H](CCCNC(=N)N)C(=O)O [Example 188, H-Phenylalanyl-Lysyl-Alanyl-{(2S)-2-Amino-3-cyclohexylpropanoyl}-{(2S)-2-Amino-3-cyclohexylpropanoyl}-Leucyl-Alanyl-Arginyl-OH] (H-FKA[Cha][Cha]LAR-OH) | 210 nM |
| C[C@H](NC(=O)[C@H](CCCCN)NC(=O)[C@@H](N)Cc1ccccc1)C(=O)N[C@@H](CC1CCCCC1)C(=O)N[C@@H](CC1CCCCC1)C(=O)N[C@H](C)C(=O)N[C@H](C)C(=O)N[C@@H](CCCNC(=N)N)C(=O)O [Example 202, H-Phenylalanyl-Lysyl-Alanyl-{(2S)-2-Amino-3-cyclohexylpropanoyl}-{(2S)-2-Amino-3-cyclohexylpropanoyl}-DAlanyl-DAlanyl-Arginyl-OH] (H-FKA[Cha][Cha][dA][dA]R-OH) | 870 nM |
| CC(C)C[C@H](NC(=O)[C@H](CC1CCCCC1)NC(=O)[C@H](CC1CCCCC1)NC(=O)[C@H](C)NC(=O)[C@H](CCCCN)NC(=O)[C@@H](N)Cc1ccccc1)C(=O)N[C@H](C)C(=O)NCC(=O)N[C@@H](CCCNC(=N)N)C(=O)O [Example 213, H-Phenylalanyl-Lysyl-Alanyl-{(2S)-2-Amino-3-cyclohexylpropanoyl}-{(2S)-2-Amino-3-cyclohexylpropanoyl)-Leucyl-DAlanyl-Glycyl-Arginyl-OH] (H-FKA[Cha][Cha]L[dA]GR-OH) | 330 nM |
| CC(C)C[C@H](NC(=O)[C@@H](Cc1ccccc1)NC(=O)[C@H](CC1CCCCC1)NC(=O)[C@H](C)NC(=O)[C@H](CCCCN)NC(=O)[C@@H](N)Cc1ccccc1)C(=O)N[C@H](C)C(=O)N[C@@H](CCCNC(=N)N)C(=O)O [Example 220, H-Phenylalanyl-Lysyl-Alanyl-{(2S)-2-Amino-3-cyclohexylpropanoyl}-DPhenylalanyl-Leucyl-DAlanyl-Arginyl-OH] (H-FKA[Cha][dF]L[dA]R-OH) | 220 nM |
| CC(C)C[C@H](NC(=O)[C@H](CC1CCCCC1)NC(=O)[C@H](CC1CCCCC1)NC(=O)[C@H](C)NC(=O)[C@H](CCCCN)NC(=O)[C@@H](N)Cc1ccccc1)C(=O)N(C)[C@H](C)C(=O)N[C@@H](CCCNC(=N)N)C(=O)O [Example 229, H-Phenylalanyl-Lysyl-Alanyl-{(2S)-2-Amino-3-cyclohexylpropanoyl}-{(2S)-2-Amino-3-cyclohexylpropanoyl}-Leucyl-(N-Methyl)DAlanyl-Arginyl-OH] (H-FKA[Cha][Cha]L[dNMeA]R-OH) | 33 nM |
| CC(C)C[C@H](NC(=O)[C@H](CC1CCCCC1)NC(=O)[C@H](Cc1c[nH]c2ccccc12)NC(=O)[C@H](C)NC(=O)[C@H](CCCCN)NC(=O)[C@@H](N)Cc1ccccc1)C(=O)N[C@H](C)C(=O)N[C@@H](CCCNC(=N)N)C(=O)O [Example 245, H-Phenylalanyl-Lysyl-Alanyl-Tryptophyl-{(2S)-2-Amino-3-cyclohexylpropanoyl}-Leucyl-DAlanyl-Arginyl-OH] (H-FKAW[Cha]L[dA]R-OH) | 52 nM |
| CC(C)C[C@H](NC(=O)[C@H](CC1CCCCC1)NC(=O)[C@@H](C)NC(=O)[C@H](C)NC(=O)[C@H](CCCCN)NC(=O)[C@@H](N)Cc1ccccc1)C(=O)N[C@H](C)C(=O)N[C@@H](CCCNC(=N)N)C(=O)O [Example 247, H-Phenylalanyl-Lysyl-Alanyl-DAlanyl-{(2S)-2-Amino-3-cyclohexylpropanoyl}-Leucyl-DAlanyl-Arginyl-OH] (H-FKA[dA][Cha]L[dA]R-OH) | 330 nM |
